≈ marks a conversion by molar mass, not a printed value. Where two headings read alike, the source gives them in different places.
Columns and labels:
Format in all cases: cell-based
[1] = tested on: non-CF clinical isolates of P. aeruginosa; assay: MIC vs non-CF clinical isolates of P. aeruginosa; settings: Pseudomonas aeruginosa, MIC key class
Protocol: (§1) Bacterial isolates were cultivated from −70° C. frozen stocks by two consecutive overnight passages at 35° C. in ambient air on 5% blood agar (Remel, Lenexa, Kans.). Clinical isolates tested were from a collection composed of isolates collected during clinical trials and recent clinical isolates obtained from various geographically diverse hospitals in the US. Quality control and primary panel strains were from the American Type Culture Collection (ATCC; Rockville, Md.), with the exception of P. aeruginosa PAO200, a strain with a deletion of the mexABoprM genes that was received from Dr. H. Schweizer. […] Strain Z61 (ATCC 35151) is also hypersusceptible to antibacterials. It is thought that the hypersusceptibility of this strain is the result of increased permeability of its outer membrane (Angus B L et al, Antimicrobial Agents and Chemotherapy 1982 21,299-309: Outer membrane permeability in Pseudomonas aeruginosa: Comparison of a wild-type with an antibacterial-supersusceptible mutant).
(§2) Minimum Inhibitory Concentrations (MICs) were determined by the broth microdilution method in accordance with the National Committee for Clinical Laboratory Standards (NCCLS) guidelines. In brief, organism suspensions were are adjusted to a 0.5 McFarland standard to yield a final inoculum between 3×10^5 and 7×10^5 colony-forming units (CFU)/mL. Drug dilutions and inocula were made in sterile, cation adjusted Mueller-Hinton Broth (Remel). An inoculum volume of 100 μl was added to wells containing 100 μl of broth with 2-fold serial dilutions of drug. All inoculated microdilution trays were incubated in ambient air at 35° C. for 18-24 hours. Following incubation, the lowest concentration of the drug that prevented visible growth was recorded as the MIC. Performance of the assay was monitored by the use of laboratory quality-control strains against tobramycin, that has a defined MIC spectrum, in accordance with NCCLS guidelines.

[2] = tested on: P. aeruginosa PAO200 mexAB; assay: MIC broth microdilution, standard panel: P. aeruginosa PAO200 mexAB; settings: Pseudomonas aeruginosa, PAO200MEXAB, read-out: MIC P. aeruginosa PAO200 mexAB
Protocol: as §1, §2

Klebsiella pneumoniae = assay: MIC vs enteric organisms: Klebsiella pneumoniae; settings: K. pneu., MIC key class
Protocol: (§3) Bacterial isolates were cultivated from −70° C. frozen stocks by two consecutive overnight passages at 35° C. in ambient air on 5% blood agar (Remel, Lenexa, Kans.). Clinical isolates tested were from a collection composed of isolates collected during clinical trials and recent clinical isolates obtained from various geographically diverse hospitals in the US. Quality control and primary panel strains were from the American Type Culture Collection (ATCC; Rockville, Md.), with the exception of P. aeruginosa PAO200, a strain with a deletion of the mexABoprM genes that was received from Dr. H. Schweizer.
as §2, with “MIC.” for “MIC. Performance of the assay was monitored by the use of laboratory quality-control strains against tobramycin, that has a defined MIC spectrum, in accordance with NCCLS guidelines.”

[3] = tested on: Acinetobacter calcoaceticus; assay: MIC vs non-fermenting organisms: Acinetobacter calcoaceticus; settings: Acinet. calc., MIC key class
Protocol: as §3
as §2, with “MIC.” for “MIC. Performance of the assay was monitored by the use of laboratory quality-control strains against tobramycin, that has a defined MIC spectrum, in accordance with NCCLS guidelines.”

[4] = tested on: Pseudomonas aeruginosa cystic fibrosis isolate 2196; assay: MIC vs cystic fibrosis isolate of P. aeruginosa 2196 (resistant to ciprofloxacin); settings: strain 2196, Cipro R, LpxC inhibitors, MIC key class
Protocol: as §3
as §2, with “MIC.” for “MIC. Performance of the assay was monitored by the use of laboratory quality-control strains against tobramycin, that has a defined MIC spectrum, in accordance with NCCLS guidelines.”

Escherichia coli = assay: MIC vs enteric organisms: Escherichia coli clinical isolates; settings: Escherichia coli, MIC key class, read-out: MIC
Protocol: as §3
as §2, with “MIC.” for “MIC. Performance of the assay was monitored by the use of laboratory quality-control strains against tobramycin, that has a defined MIC spectrum, in accordance with NCCLS guidelines.”

Enterobacter cloacae = assay: MIC vs enteric organisms: Enterobacter cloacae; settings: E. clo., MIC key class
Protocol: as §3
as §2, with “MIC.” for “MIC. Performance of the assay was monitored by the use of laboratory quality-control strains against tobramycin, that has a defined MIC spectrum, in accordance with NCCLS guidelines.”

[5] = tested on: Pseudomonas aeruginosa cystic fibrosis isolate 3232; assay: MIC vs cystic fibrosis isolate of P. aeruginosa 3232 (Ceftaz. R); settings: strain 3232, Ceftaz. R, LpxC inhibitors, MIC key class
[6] = tested on: Pseudomonas aeruginosa cystic fibrosis isolate 3236; assay: MIC vs cystic fibrosis isolate of P. aeruginosa 3236 (sensitive to most antibacterials); settings: strain 3236, Sensitive, LpxC inhibitors, MIC key class
Protocol: as §3
as §2, with “MIC.” for “MIC. Performance of the assay was monitored by the use of laboratory quality-control strains against tobramycin, that has a defined MIC spectrum, in accordance with NCCLS guidelines.”

S. aureus 29213 = assay: MIC broth microdilution, standard panel: S. aureus 29213; settings: Staphylococcus aureus, standard panel of organisms
Protocol: as §1, §2

Structure (SMILES) | MIC ([1]; P. aer 27853) | MIC ([1]; P. aer psa-6b) | MIC ([1]; PAO1, P. aer. PAO1) | MIC [2] | MIC (Klebsiella pneumoniae) | MIC [3] | MIC [4] | MIC (Escherichia coli; E. coli 1619) | MIC (Escherichia coli; E. coli 2788) | MIC (Enterobacter cloacae) | MIC [5] | MIC [6] | MIC (S. aureus 29213) | MIC ([1]; P. aer 12307)
C[C@@H](N)[C@H](NC(=O)c1ccc(C#Cc2ccccc2)cc1)C(=O)NO [Example 13] | < 6.25 µg/mL | < 6.25 µg/mL | < 6.25 µg/mL | < 6.25 µg/mL | < 6.25 µg/mL | > 50 µg/mL | < 6.25 µg/mL | < 6.25 µg/mL | < 6.25 µg/mL | < 6.25 µg/mL | < 6.25 µg/mL | < 6.25 µg/mL | > 50 µg/mL | 
C[C@@H](O)[C@H](NC(=O)c1ccc(C#CC#Cc2ccc(NC(=O)CNc3ccccc3)cc2)cc1)C(=O)NO [Example 777, N-{(1S,2R)-2-hydroxy-1-[(hydroxyamino)carbonyl]propyl}-4-[4-(4-{[(phenylamino)acetyl]amino}phenyl)buta-1,3-diynyl]benzamide] | < 6.25 µg/mL | 6.25 to 50 µg/mL (≈ 12.2 to 97.9 µM) |  | < 6.25 µg/mL | < 6.25 µg/mL | < 6.25 µg/mL | < 6.25 µg/mL | < 6.25 µg/mL | < 6.25 µg/mL | < 6.25 µg/mL | < 6.25 µg/mL | < 6.25 µg/mL | > 50 µg/mL | < 6.25 µg/mL
C[C@@H](O)[C@H](NC(=O)c1ccc(C#Cc2ccccc2)cc1)C(=O)NO [Example 12, N-(1-(N-hydroxycarbamoyl)(1S,2R)-2-hydroxypropyl)[4-(2-phenylethynyl)phenyl]carboxamide] | < 6.25 µg/mL | < 6.25 µg/mL | < 6.25 µg/mL | < 6.25 µg/mL | < 6.25 µg/mL | < 6.25 µg/mL | 6.25 to 50 µg/mL (≈ 18.5 to 148 µM) | < 6.25 µg/mL | < 6.25 µg/mL | < 6.25 µg/mL | < 6.25 µg/mL | < 6.25 µg/mL | > 50 µg/mL | < 6.25 µg/mL
NC[C@H](NC(=O)c1ccc(C#Cc2ccc(NC(=O)CNC3CC3)cc2)cc1)C(=O)NO [Example 516, N-[(1S)-1-(aminomethyl)-2-(hydroxyamino)-2-oxoethyl]-4-[(4-{[(cyclopropylamino)acetyl]amino}phenyl)ethynyl]benzamide] | < 6.25 µg/mL | < 6.25 µg/mL |  | < 6.25 µg/mL | > 50 µg/mL | > 50 µg/mL | < 6.25 µg/mL | < 6.25 µg/mL | 6.25 to 50 µg/mL (≈ 14.4 to 115 µM) | 6.25 to 50 µg/mL (≈ 14.4 to 115 µM) | < 6.25 µg/mL | < 6.25 µg/mL | > 50 µg/mL | < 6.25 µg/mL
CCc1ccc(-c2ccc(C(=O)N[C@@H](CN)C(=O)NO)cc2)cc1 [Example 280, N-[(1S)-1-(aminomethyl)-2-(hydroxyamino)-2-oxoethyl]-4′-ethyl-1,1-biphenyl-4-carboxamide] | < 6.25 µg/mL | < 6.25 µg/mL | < 6.25 µg/mL | < 6.25 µg/mL | 6.25 to 50 µg/mL (≈ 19.1 to 153 µM) | > 50 µg/mL | 6.25 to 50 µg/mL (≈ 19.1 to 153 µM) | < 6.25 µg/mL | < 6.25 µg/mL | < 6.25 µg/mL | < 6.25 µg/mL | < 6.25 µg/mL | > 50 µg/mL | < 6.25 µg/mL
C[C@@H](O)[C@H](NC(=O)c1ccc(C#CC#Cc2ccccc2)cc1)C(=O)NO [Example 19, N-(1-(N-hydroxycarbamoyl)(1S,2R)-2-hydroxypropyl)[4-(4-phenylbuta-1,3-diynyl)phenyl]carboxamide] | < 6.25 µg/mL | < 6.25 µg/mL | < 6.25 µg/mL | < 6.25 µg/mL | < 6.25 µg/mL | < 6.25 µg/mL | < 6.25 µg/mL | < 6.25 µg/mL | < 6.25 µg/mL | < 6.25 µg/mL | < 6.25 µg/mL | < 6.25 µg/mL | 6.25 to 50 µg/mL (≈ 17.2 to 138 µM) | < 6.25 µg/mL
NC[C@H](NC(=O)c1ccc(C#CC#Cc2ccccc2)cc1)C(=O)NO [Example 481, N-[(1S)-1-(aminomethyl)-2-(hydroxyamino)-2-oxoethyl]-4-(4-phenylbuta-1,3-diynyl)benzamide] | < 6.25 µg/mL | < 6.25 µg/mL | < 6.25 µg/mL | < 6.25 µg/mL | < 6.25 µg/mL | > 50 µg/mL | < 6.25 µg/mL | < 6.25 µg/mL | < 6.25 µg/mL | < 6.25 µg/mL | < 6.25 µg/mL | < 6.25 µg/mL | > 50 µg/mL | < 6.25 µg/mL
C[C@@H](O)[C@H](NC(=O)c1ccc(-c2ccc(Br)cc2)cc1)C(=O)NO [Example 315, 4′-bromo-N-{(1S,2R)-2-hydroxy-1-[(hydroxyamino)carbonyl]propyl}-1,1′-biphenyl-4-carboxamide] | < 6.25 µg/mL | < 6.25 µg/mL | < 6.25 µg/mL | < 6.25 µg/mL | > 50 µg/mL | > 50 µg/mL | < 6.25 µg/mL | < 6.25 µg/mL | < 6.25 µg/mL | < 6.25 µg/mL | < 6.25 µg/mL | < 6.25 µg/mL | > 50 µg/mL | < 6.25 µg/mL
CCc1ccc(-c2ccc(C(=O)N[C@H](C(=O)NO)[C@@H](C)N)cc2)cc1 [Example 779, N-{(1S,2R)-2-amino-1-[(hydroxyamino)carbonyl]propyl)-4′-ethyl-1,1′-biphenyl-4-carboxamide] | < 6.25 µg/mL | < 6.25 µg/mL | < 6.25 µg/mL | < 6.25 µg/mL | 6.25 to 50 µg/mL (≈ 18.3 to 146 µM) | > 50 µg/mL | < 6.25 µg/mL | < 6.25 µg/mL | < 6.25 µg/mL | < 6.25 µg/mL | < 6.25 µg/mL | < 6.25 µg/mL | > 50 µg/mL | 
C[C@@H](O)[C@H](NC(=O)c1ccc(C#CC#Cc2ccc(NC(=O)CNc3ccccn3)cc2)cc1)C(=O)NO [Example 801, N-{(1S,2R)-2-hydroxy-1-[(hydroxyamino)carbonyl]propyl}-4-[4-(4-{[(pyridin-2-ylamino)acetyl]amino}phenyl)buta-1,3-diynyl]benzamide] | < 6.25 µg/mL | < 6.25 µg/mL | < 6.25 µg/mL | < 6.25 µg/mL | < 6.25 µg/mL | 6.25 to 50 µg/mL (≈ 12.2 to 97.7 µM) | < 6.25 µg/mL | < 6.25 µg/mL | < 6.25 µg/mL | < 6.25 µg/mL | < 6.25 µg/mL | < 6.25 µg/mL | > 50 µg/mL | 

From US7358359B2, “Antibacterial agents” (University of Washington, priority 2003, dated 2008)
